What all share (type): biochemical, Paris polyphylla var. yunnanensis
In one assay the test system is UGT80A41. Description: initial rates of glucoside formation, UPLC-MS/MS, Michaelis-Menten fit. To be noted: read-out: apparent KM; 2 mmol/L UDP-glucose, 50 mmol/L Tris-HCl pH 8.0, 37 °C, 30 min.
The next assay relates to UGT80A40. The description is as above. To be noted: read-out: apparent KM; 2 mmol/L UDP-glucose, 50 mmol/L Tris-HCl pH 8.0, 37 °C, 30 min.
The test system of the next assay is UGT73CE1. Description: initial rates of rhamnoside formation, UPLC-MS/MS, Michaelis-Menten fit. To be noted: read-out: apparent KM; 1.5 mmol/L UDP-rhamnose, 50 mmol/L Tris-HCl pH 8.0, 37 °C, 30 min.

Each structure is given as a SMILES string.

For `C[C@@H]1CC[C@@]2(OC1)O[C@H]1C[C@H]3[C@@H]4CC=C5C[C@@H](O)CC[C@]5(C)[C@H]4CC[C@]3(C)[C@H]1[C@@H]2C` [compound 1, diosgenin], the Km with UGT80A41 was 5.9 ± 0.5 µM; in the assay with UGT80A40, 6.1 ± 0.7 µM. As to `C[C@@H]1CC[C@@]2(OC1)O[C@H]1C[C@H]3[C@@H]4CC=C5C[C@@H](O[C@@H]6O[C@H](CO)[C@@H](O)[C@H](O)[C@H]6O)CC[C@]5(C)[C@H]4CC[C@]3(C)[C@H]1[C@@H]2C` [compound 3, trillin], the Michaelis constant (Km) with UGT73CE1 is 7.1 ± 2.1 µM.

The term Km denotes the substrate concentration at which the rate is half of its maximum.

The values are drawn from paper PMC10638507 (Acta Pharmaceutica Sinica. B, 2023).
